Patent USRE39591E1, “6-O-substituted ketolides having antibacterial activity” (Abbott Laboratories, priority 1996, dated 2007)
Values after ≈ are worked out from the molar mass of the structure shown.

System: up to 32 different microorganisms
Experiment: in vitro antibacterial activity (MIC), agar dilution on Brain Heart Infusion (BHI) agar with Steers replicator
Format: cell-based
Settings: unit assumed
Outline: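 Up to 32 strains were replicator-inoculated (1:100, or 1:10 for Micrococcus and Streptococcus) onto BHI agar plates holding serial compound dilutions and kept 20-24 h at 35-37° C. Plates were read visually against drug-free growth controls, with erythromycin A run alongside; MIC was the lowest concentration giving no growth, slight haze or sparse colonies.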

SMILES | MIC (organism code AA) [µg/mL] | MIC (organism code CC) [µg/mL] | MIC (organism code DD) [µg/mL] | MIC (organism code EE) [µg/mL] | MIC (organism code FF) [µg/mL] | MIC (organism code GG) [µg/mL] | MIC (organism code HH) [µg/mL] | MIC (organism code II) [µg/mL] | MIC (organism code JJ) [µg/mL] | MIC (organism code KK) [µg/mL] | MIC (organism code LL) [µg/mL] | MIC (organism code MM) [µg/mL] | MIC (organism code NN) [µg/mL] | MIC (organism code OO) [µg/mL] | MIC (organism code PP) [µg/mL] | MIC (organism code QQ) [µg/mL] | MIC (organism code RR) [µg/mL] | MIC (organism code SS) [µg/mL] | MIC (organism code TT) [µg/mL] | MIC (organism code UU) [µg/mL] | other results
CCC1OC(=O)C(C)C(=O)C(C)C(OC2OC(C)CC(N(C)C)C2O)C(C)(OCC=Cc2cnc3cccc([N+](=O)[O-])c3c2)CC(C)C(=O)C(C)C2NC(=O)OC12C (stereo not shown) [Example 210, R is —CH2CH═CH-(5-nitro-3-quinolyl)] | 0.1 (≈ 0.123 µM) | > 100 | 0.1 (≈ 0.123 µM) | 0.1 (≈ 0.123 µM) | 0.1 (≈ 0.123 µM) | > 100 | 0.1 (≈ 0.123 µM) | 0.02 (≈ 0.0247 µM) | ≤ 0.005 | ≤ 0.005 | 0.01 (≈ 0.0123 µM) | 0.78 (≈ 0.962 µM) | 0.2 (≈ 0.247 µM) | 0.02 (≈ 0.0247 µM) | 0.2 (≈ 0.247 µM) | 50 (≈ 61.7 µM) | 0.2 (≈ 0.247 µM) | > 100 | > 100 | 0.78 (≈ 0.962 µM) | MIC (organism code VV): 0.02 µg/mL (≈ 0.0247 µM); MIC (organism code WW): 3 µg/mL (≈ 3.7 µM); MIC (organism code XX): 0.015 µg/mL (≈ 0.0185 µM); MIC (organism code YY): ≤ 0.004 µg/mL; MIC (organism code ZZ): 4 µg/mL (≈ 4.93 µM); MIC (organism code ZZA): 0.25 µg/mL (≈ 0.308 µM)
C#CCOC1(C)CC(C)C(=O)C(C)C2NC(=O)OC2(C)C(CC)OC(=O)C(C)C(=O)C(C)C1OC1OC(C)CC(N(C)C)C1O (stereo not shown) [Example 246, Compound of Formula (IX): L is CO, T is NH, R is —CH2CH≡C—H] | 0.78 | > 100 | 0.78 | 0.78 | 0.78 | > 100 | 0.78 | 0.2 | 0.1 | 0.2 | 0.2 | > 100 | 0.39 | 0.2 | 0.78 | > 100 | 0.78 | > 100 | > 100 | 50 | MIC (organism code BB): 0.78 µg/mL; MIC (organism code VV): 0.78 µg/mL; MIC (organism code WW): 16 µg/mL; MIC (organism code XX): 0.25 µg/mL; MIC (organism code YY): 0.125 µg/mL; MIC (organism code ZZ): > 128 µg/mL; MIC (organism code ZZA): 0.5 µg/mL
CCC1OC(=O)C(C)C(=O)C(C)C(OC2OC(C)CC(N(C)C)C2O)C(C)(OCC=Cc2cnc3ccc(C#N)cc3c2)CC(C)C(=O)C(C)C2NC(=O)OC12C (stereo not shown) [Example 218, R is —CH2CH═CH-(6-cyano-3-quinolyl)] | 0.1 (≈ 0.126 µM) | > 100 | 0.1 (≈ 0.126 µM) | 0.1 (≈ 0.126 µM) | 0.1 (≈ 0.126 µM) | > 100 | 0.01 (≈ 0.0126 µM) | 0.05 (≈ 0.0632 µM) | 0.01 (≈ 0.0126 µM) | 0.01 (≈ 0.0126 µM) | 0.01 (≈ 0.0126 µM) | 6.2 (≈ 7.84 µM) | 0.2 (≈ 0.253 µM) | 0.05 (≈ 0.0632 µM) | 0.05 (≈ 0.0632 µM) | 50 (≈ 63.2 µM) | 0.39 (≈ 0.493 µM) | > 100 | > 100 | 0.78 (≈ 0.986 µM) | MIC (organism code BB): 0.1 µg/mL (≈ 0.126 µM); MIC (organism code VV): 0.05 µg/mL (≈ 0.0632 µM); MIC (organism code XX): 0.015 µg/mL (≈ 0.019 µM); MIC (organism code YY): 0.015 µg/mL (≈ 0.019 µM); MIC (organism code ZZ): 4 µg/mL (≈ 5.06 µM); MIC (organism code ZZA): 0.25 µg/mL (≈ 0.316 µM)
